Assays:
[1] = molecular target: CDK9/T1 (Homo sapiens, UniProt P50750); assay: ADP Glo Kinase assay CDK9/T1; type: biochemical; details: CDK9T1; read-out: CDK inhibition, Ki (μM) CDK9T1
Outline: (§1)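 Luminescent ADP detection measured activity after a 40 min, 37° C ATP-initiated reaction, using RB-CTF for CDK4/D1 and CDK6/D3 and RBER-IRStide for CDK9/T1. Controls lacked or contained kinase. Values: IC50 by four-parameter nonlinear regression, Ki from ATP Km.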

[2] = molecular target: T1, CDKs and other kinases (Homo sapiens, UniProt P50613); assay: Radiometric kinase assay (Eurofins Pharma Discovery or Reaction Biology Corporation Kinase Profiler); type: biochemical; details: CDK7H; for Ki: read-out: CDK inhibition, Ki (μM) CDK7H; for remaining activity at 10 µM: compound at 10 μM, read-out: residual activity (%) at 10 μM CDK7H
T1 construct: other: CDK7H; residual activity (%) at 10 μM CDK7H; compound at 10 μM
T1 sequence (P50613 whole entry): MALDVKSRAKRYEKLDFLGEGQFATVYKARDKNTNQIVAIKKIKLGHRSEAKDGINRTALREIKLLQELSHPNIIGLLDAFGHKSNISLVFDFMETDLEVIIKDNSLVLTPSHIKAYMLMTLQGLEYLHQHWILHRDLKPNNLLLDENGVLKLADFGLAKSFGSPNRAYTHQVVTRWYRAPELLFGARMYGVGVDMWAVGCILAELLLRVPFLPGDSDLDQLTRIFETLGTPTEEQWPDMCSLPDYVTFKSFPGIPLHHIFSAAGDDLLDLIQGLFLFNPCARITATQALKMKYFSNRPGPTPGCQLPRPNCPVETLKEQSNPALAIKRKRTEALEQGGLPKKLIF
Outline: (§2)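 Other CDKs and further kinases were profiled externally by radiometric assay. In-house ADP Glo assays covered CDK4/D1 and CDK6/D3 (RB-CTF substrate, pH 7.5 Tris buffer with MgCl2, DTT, BSA) and CDK9/T1 (RBER-IRStide substrate), 40 min at 37° C.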

[3] = molecular target: T2, CDKs and other kinases (Homo sapiens, UniProt P06493); assay: as above; type: biochemical; details: CDK1B; for Ki: read-out: CDK inhibition, Ki (μM) CDK1B; for remaining activity at 10 µM: compound at 10 μM, read-out: residual activity (%) at 10 μM CDK1B
T2 construct: other: CDK1B; residual activity (%) at 10 μM CDK1B; compound at 10 μM
T2 sequence (P06493 whole entry): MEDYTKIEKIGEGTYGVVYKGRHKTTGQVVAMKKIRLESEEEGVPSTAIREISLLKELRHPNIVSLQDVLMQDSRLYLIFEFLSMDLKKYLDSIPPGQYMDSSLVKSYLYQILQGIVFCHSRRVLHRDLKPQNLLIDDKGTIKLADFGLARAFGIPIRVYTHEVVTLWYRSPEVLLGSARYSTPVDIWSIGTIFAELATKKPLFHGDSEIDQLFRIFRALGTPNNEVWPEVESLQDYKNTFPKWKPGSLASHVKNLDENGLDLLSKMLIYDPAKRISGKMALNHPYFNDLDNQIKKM
Outline: as §2

[4] = molecular target: T3, CDKs and other kinases (Homo sapiens, UniProt P24941); assay: as above; type: biochemical; details: CDK2A; for Ki: read-out: CDK inhibition, Ki (μM) CDK2A; for remaining activity at 10 µM: compound at 10 μM, read-out: residual activity (%) at 10 μM CDK2A
T3 construct: other: CDK2A; residual activity (%) at 10 μM CDK2A; compound at 10 μM
Outline: as §2

[5] = tested on: PC3; assay: MTT cell viability assay, PC3 prostate cancer cell line (72 h); type: cell-based; details: Homo sapiens, PC-3, PC3, 72 h, read-out: 72 h Antiproliferative activity, GI50 (μmol/L) ± SD
Method: (§3) Compounds from Example 1 were subjected to a standard MTT (3-(4,5-dimethylthiazol-2-yl)-2,5-diphenyltetrazolium bromide) and resazurin assays on solid tumour cell lines and leukemia cell lines, respectively, as previously reported (Wang S et al., J Med Chem 47:1662-1675, 2004 and Diab S. et al. CheMedChem 9:962-972, 2014). Compound concentrations required to inhibit 50% of cell growth (GI50) were calculated using non-linear regression analysis.

[6] = tested on: MCF-7; assay: MTT cell viability assay, MCF-7 breast cancer cell line (72 h); type: cell-based; details: Homo sapiens, MCF7, MCF-7, 72 h, read-out: 72 h Antiproliferative activity, GI50 (μmol/L) ± SD
Method: as §3

[7] = tested on: MDA-MB-468; assay: MTT cell viability assay, MDA-MB-468 breast cancer cell line (72 h); type: cell-based; details: Homo sapiens, MDA-MB-468, 72 h, read-out: 72 h Antiproliferative activity, GI50 (μmol/L) ± SD
Method: as §3

[8] = tested on: NB4; assay: Resazurin cell viability assay, NB4 leukaemia cell line (72 h); type: cell-based; details: Homo sapiens, NB-4, NB4, 72 h, read-out: 72 h Antiproliferative activity, GI50 (μmol/L) ± SD
Method: as §3

[9] = tested on: leukemia cell lines; assay: Resazurin cell viability assay on leukemia cell lines (72 h growth inhibition, GI50); type: cell-based; details: Homo sapiens, MV4-11 cells
Outline: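 Viability is measured by MTT in solid tumour cells and by resazurin in leukaemia cells. Reported values are GI50s calculated with non-linear regression analysis.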

[10] = tested on: T47D; assay: MTT cell viability assay, T47D breast cancer cell line (72 h); type: cell-based; details: Homo sapiens, read-out: 72 h Antiproliferative activity, GI50 (μmol/L) ± SD
Method: as §3

[11] = tested on: MOLM13; assay: Resazurin cell viability assay, MOLM13 leukaemia cell line (72 h); type: cell-based; details: Homo sapiens, MOLM-13, MOLM13, 72 h, read-out: 72 h Antiproliferative activity, GI50 (μmol/L) ± SD
Method: as §3

[12] = tested on: U937; assay: Resazurin cell viability assay, U937 leukaemia cell line (72 h); type: cell-based; details: Homo sapiens, U-937, U937, 72 h, read-out: 72 h Antiproliferative activity, GI50 (μmol/L) ± SD
Method: as §3

[13] = tested on: MDA-MB-453; assay: MTT cell viability assay, MDA-MB-453 breast cancer cell line (72 h); type: cell-based; details: Homo sapiens, MDA-MB-453, 72 h, read-out: 72 h Antiproliferative activity, GI50 (μmol/L) ± SD
Method: as §3

[14] = molecular target: CDK4/D1 (Homo sapiens, UniProt P11802); assay: ADP Glo Kinase assay CDK4/D1; type: biochemical; details: CDK4D1; for Ki: read-out: CDK inhibition, Ki (μM) CDK4D1; for remaining activity at 10 µM: compound at 10 μM, read-out: residual activity (%) at 10 μM CDK4D1
Sequence of CDK4/D1 (P11802 whole entry): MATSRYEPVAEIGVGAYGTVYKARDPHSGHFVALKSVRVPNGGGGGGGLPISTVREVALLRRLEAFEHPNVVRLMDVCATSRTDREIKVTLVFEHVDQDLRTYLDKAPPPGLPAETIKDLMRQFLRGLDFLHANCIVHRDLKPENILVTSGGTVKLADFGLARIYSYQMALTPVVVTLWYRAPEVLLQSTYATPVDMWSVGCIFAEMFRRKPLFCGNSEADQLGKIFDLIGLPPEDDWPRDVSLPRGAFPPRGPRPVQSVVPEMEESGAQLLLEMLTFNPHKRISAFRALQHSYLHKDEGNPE
Sequence of CDK4/D1 (P24385 whole entry partner): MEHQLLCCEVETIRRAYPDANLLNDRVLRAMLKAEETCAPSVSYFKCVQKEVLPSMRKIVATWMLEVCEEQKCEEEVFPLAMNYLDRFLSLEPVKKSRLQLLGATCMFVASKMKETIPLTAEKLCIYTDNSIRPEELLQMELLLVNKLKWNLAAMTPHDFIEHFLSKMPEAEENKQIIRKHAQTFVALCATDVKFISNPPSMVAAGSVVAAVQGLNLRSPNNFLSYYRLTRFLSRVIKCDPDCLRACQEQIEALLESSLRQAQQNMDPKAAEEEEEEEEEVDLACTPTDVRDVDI
Outline: as §1

[15] = tested on: A2780; assay: MTT cell viability assay, A2780 ovarian cancer cell line (72 h); type: cell-based; details: Homo sapiens, A2780, 72 h, read-out: 72 h Antiproliferative activity, GI50 (μmol/L) ± SD
Method: as §3

[16] = tested on: MDA-MB-231; assay: MTT cell viability assay, MDA-MB-231 breast cancer cell line (72 h); type: cell-based; details: Homo sapiens, MDA-MB-231, 72 h, read-out: 72 h Antiproliferative activity, GI50 (μmol/L) ± SD
Method: as §3

[17] = molecular target: CDK6/D3 (Homo sapiens, UniProt Q00534); assay: ADP Glo Kinase assay CDK6/D3; type: biochemical; details: CDK6D3; for Ki: read-out: CDK inhibition, Ki (μM) CDK6D3; for remaining activity at 10 µM: compound at 10 μM, read-out: residual activity (%) at 10 μM CDK6D3
Sequence of CDK6/D3 (Q00534 whole entry): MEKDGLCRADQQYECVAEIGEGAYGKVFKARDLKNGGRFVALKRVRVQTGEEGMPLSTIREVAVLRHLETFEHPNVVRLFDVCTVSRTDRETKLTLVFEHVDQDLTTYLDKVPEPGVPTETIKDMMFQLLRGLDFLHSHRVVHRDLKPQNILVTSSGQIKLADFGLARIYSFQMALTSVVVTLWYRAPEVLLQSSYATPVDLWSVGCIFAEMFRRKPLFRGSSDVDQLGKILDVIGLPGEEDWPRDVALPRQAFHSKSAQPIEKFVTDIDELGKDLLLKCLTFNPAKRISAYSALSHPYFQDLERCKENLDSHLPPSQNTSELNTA
Sequence of CDK6/D3 (P30281 whole entry partner): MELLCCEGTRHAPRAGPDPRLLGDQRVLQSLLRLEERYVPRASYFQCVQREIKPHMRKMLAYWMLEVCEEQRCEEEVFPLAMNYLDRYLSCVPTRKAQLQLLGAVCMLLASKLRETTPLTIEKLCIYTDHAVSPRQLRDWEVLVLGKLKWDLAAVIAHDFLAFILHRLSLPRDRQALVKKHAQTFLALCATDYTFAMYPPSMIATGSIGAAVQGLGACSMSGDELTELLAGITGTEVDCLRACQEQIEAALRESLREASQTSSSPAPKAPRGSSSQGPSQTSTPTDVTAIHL
Outline: as §1

[18] = tested on: LNCap; assay: MTT cell viability assay, LNCap prostate cancer cell line (72 h); type: cell-based; details: Homo sapiens, read-out: 72 h Antiproliferative activity, GI50 (μmol/L) ± SD
Method: as §3

Sequence of CDK9/T1 (P50750 whole entry): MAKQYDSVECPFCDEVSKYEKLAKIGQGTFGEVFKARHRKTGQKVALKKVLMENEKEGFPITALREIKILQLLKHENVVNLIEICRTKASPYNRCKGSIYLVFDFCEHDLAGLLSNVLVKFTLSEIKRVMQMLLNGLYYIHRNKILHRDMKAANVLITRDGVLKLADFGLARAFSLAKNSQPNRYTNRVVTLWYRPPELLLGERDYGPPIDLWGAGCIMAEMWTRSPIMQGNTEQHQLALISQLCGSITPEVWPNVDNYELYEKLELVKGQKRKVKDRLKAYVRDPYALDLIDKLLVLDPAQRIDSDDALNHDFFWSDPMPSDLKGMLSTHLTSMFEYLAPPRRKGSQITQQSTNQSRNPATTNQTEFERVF
Sequence of CDK9/T1 (O60563 whole entry partner): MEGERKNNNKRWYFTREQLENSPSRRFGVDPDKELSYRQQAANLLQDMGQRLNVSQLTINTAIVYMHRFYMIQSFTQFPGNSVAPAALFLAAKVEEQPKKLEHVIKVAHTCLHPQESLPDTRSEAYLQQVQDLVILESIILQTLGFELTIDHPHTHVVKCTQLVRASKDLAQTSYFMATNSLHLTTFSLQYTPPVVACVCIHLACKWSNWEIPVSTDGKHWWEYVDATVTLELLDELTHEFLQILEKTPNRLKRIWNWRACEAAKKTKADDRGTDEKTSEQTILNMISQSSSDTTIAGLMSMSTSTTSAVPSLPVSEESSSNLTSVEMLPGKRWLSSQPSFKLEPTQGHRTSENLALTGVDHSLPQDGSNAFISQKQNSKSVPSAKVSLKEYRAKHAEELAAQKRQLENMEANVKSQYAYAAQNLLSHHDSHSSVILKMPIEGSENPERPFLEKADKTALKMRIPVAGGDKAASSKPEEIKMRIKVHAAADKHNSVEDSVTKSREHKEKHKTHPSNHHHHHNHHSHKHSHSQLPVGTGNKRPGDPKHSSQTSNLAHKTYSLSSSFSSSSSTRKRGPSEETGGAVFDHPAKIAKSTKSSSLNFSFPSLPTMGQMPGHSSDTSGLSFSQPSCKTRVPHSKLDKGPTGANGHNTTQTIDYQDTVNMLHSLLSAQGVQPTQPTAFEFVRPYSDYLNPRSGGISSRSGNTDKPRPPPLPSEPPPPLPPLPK

SMILES | Ki [1] [µM] | Ki [2] [µM] | Ki [3] [µM] | Ki [4] [µM] | GI50 [9] [µM] | Ki [14] [µM] | Ki [17] [µM] | remaining activity at 10 µM [14] [%] | remaining activity at 10 µM [17] [%] | further results
Cc1cnc(N[C@H]2CC[C@H](N)CC2)nc1-c1cnc2ccc(-c3ccccc3)cn12 [Compound 10, (1r,4r)-N^1-(5-Methyl-4-(6-phenylimidazo[1,2-a]pyridin-3-yl)pyrimidin-2-yl)cyclohexane-1,4-diamine] | 0.008 | 0.6 | 1.53 | 0.43 | 0.059 ± 0.008 | 2.62 | 1.54 | – | – | GI50 [5]: 0.289 ± 0.098 µmol/L; GI50 [6]: 0.247 ± 0.014 µmol/L; GI50 [7]: 0.42 ± 0.07 µmol/L; GI50 [8]: 0.153 ± 0.051 µmol/L; GI50 [10]: 0.834 ± 0.066 µmol/L; GI50 [11]: 0.019 ± 0.001 µmol/L; GI50 [12]: 0.156 ± 0.05 µmol/L; GI50 [13]: 0.049 ± 0.012 µmol/L; GI50 [15]: 0.278 ± 0.032 µmol/L; GI50 [16]: 0.418 ± 0.123 µmol/L; GI50 [18]: 0.202 ± 0.052 µmol/L
N[C@H]1CC[C@H](Nc2ncc(F)c(-c3cnc4ccc(NCc5ccc(F)cc5)cn34)n2)CC1 [Compound 7, (1r,4r)-N^1-(5-Fluoro-4-(6-((4-fluorobenzyl)amino)imidazo [1,2-a]pyridin-3-yl)pyrimidin-2-yl)cyclohexane-1,4-diamine] | 0.006 | 0.73 | 0.42 | 0.24 | 0.075 ± 0.011 | 0.691 | 1.71 | – | – | GI50 [5]: 0.087 ± 0.04 µmol/L; GI50 [6]: 0.218 ± 0.013 µmol/L; GI50 [7]: 0.08 ± 0.015 µmol/L; GI50 [8]: 0.16 ± 0.052 µmol/L; GI50 [10]: 0.616 ± 0.086 µmol/L; GI50 [11]: 0.015 ± 0.006 µmol/L; GI50 [12]: 0.156 ± 0.061 µmol/L; GI50 [13]: 0.931 ± 0.269 µmol/L; GI50 [15]: 0.274 ± 0.03 µmol/L; GI50 [16]: 0.035 ± 0.008 µmol/L
Cc1cnc(N[C@H]2CC[C@H](N)CC2)nc1-c1cnc2ccc(Nc3cccnc3)cn12 [Compound 34, (1r,4r)-N^1-(5-Methyl-4-(6-(pyridin-3-ylamino)imidazo [1,2-a]pyridin-3-yl)pyrimidin-2-yl)cyclohexane-1,4-diamine] | 0.005 | 2.24 | 2.16 | 0.09 | 0.095 ± 0.031 | 2.8 | 1.05 | – | – | –
N[C@H]1CC[C@H](Nc2ncc(F)c(-c3cnc4ccc(Nc5ccccc5)cn34)n2)CC1 [Compound 6, (1r,4r)-N^1-(5-Fluoro-4-(6-(phenylamino)imidazo[1,2-a]pyridin-3-yl)pyrimidin-2-yl)cyclohexane-1,4-diamine] | 0.003 | 0.016 | 0.013 | 0.009 | 0.002 ± 0.0005 | – | – | 11 | 16 | –
Cc1cncc(Nc2ccc3ncc(-c4nc(N[C@H]5CC[C@H](N)CC5)ncc4C)n3c2)c1 [Compound 64, (1r,4r)-N^1-(5-Methyl-4-(6-((5-methylpyridin-3-yl)amino)imidazo[1,2-a]pyridin-3-yl)pyrimidin-2-yl)cyclohexane-1,4-diamine] | 0.016 | 1.44 | 2.37 | 0.59 | 0.155 ± 0.054 | – | – | 1 | 38 | –
N[C@H]1CC[C@H](Nc2ncc(Cl)c(-c3cnc4c(-c5ccccc5)cc(C(F)(F)F)cn34)n2)CC1 [Compound 85, (1r,4r)-N^1-(5-Chloro-4-(8-phenyl-6-(trifluoromethyl)imidazo[1,2-a]pyridin-3-yl)pyrimidin-2-yl)cyclohexane-1,4-diamine] | 0.13 | 0.048 | 7.44 | 0.77 | 1.32 ± 0.549 | – | – | 75 | 43 | –
N[C@H]1CC[C@H](Nc2ncc(Cl)c(-c3cnc4ccc(NC(=O)c5ccccc5)cn34)n2)CC1 [Compound 87, N-(3-(2-(((1r,4r)-4-Aminocyclohexyl)amino)-5-chloropyrimidin-4-yl)imidazo[1,2-a]pyridin-6-yl) benzamide] | 0.073 | – | – | – | 0.135 ± 0.057 | – | – | 73 | 39 | remaining activity at 10 µM [2]: 14%; remaining activity at 10 µM [3]: 31%; remaining activity at 10 µM [4]: 19%
Cc1cnc(N[C@]23C[C@@]4(C)C[C@](C)(C[C@](O)(C4)C2)C3)nc1-c1cnc2ccc(-c3ccccc3)cn12 [Compound 100, (1s,3R,5S,7r)-3,5-Dimethyl-7-((5-methyl-4-(6-phenylimidazo[1,2-a]pyridin-3-yl)pyrimidin-2-yl)amino)adamantan-1-ol] | > 5 | – | – | – | > 10 | – | – | 96 | 84 | remaining activity at 10 µM [2]: 98%; remaining activity at 10 µM [3]: 87%; remaining activity at 10 µM [4]: 79%

Reference: US11111245B2, “Derivatives of N-cycloalkyl/heterocycloalkyl-4-(imidazo[1,2-a]pyridine)pyrimidin-2-amine as therapeutic agents” (Aucentra Therapeutics Pty Ltd, priority 2017, dated 2021)
